In PMC8287724, “Reducing Auditory Nerve Excitability by Acute Antagonism of Ca^2+-Permeable AMPA Receptors” (Frontiers in Synaptic Neuroscience, 2021):

Test system: distortion product otoacoustic emissions (DPOAE)
Assay: Distortion product otoacoustic emissions after systemic delivery
Format: in vivo, guinea pig
Details: IP 13.5 mg/kg
Procedure: As described for local delivery, cochlear output was measured similarly for systemic delivery of IEM-1460 and IEM-1925. Complete details have been previously published (Salt et al., [2013]). Briefly, acoustic tone bursts were applied in a closed sound system. The plastic extension tube of the acoustic assembly (Etymotic Research, ER-10 C) was coupled to the end of the hollow ear bar with the tube tip positioned ~1.5 mm from the tympanic membrane. Stimulus generation and data collection were performed with Tucker Davis System 3 hardware controlled by a custom written program (Microsoft Visual Basic). Stimulus waveforms were routed through a programmable Tucker Davis PA5 attenuator and HB7 headphone amplifier. Stimuli were calibrated from 0.125 to 26 kHz in 1/4 octave steps. A CAP audiogram was obtained at the beginning and end of the experiment. Up to 60 min of baseline audiometric data were obtained prior to drug delivery. Data with baseline changes >20% were excluded. A 13-level tone probe series, at selected frequencies, was repeated at 2-min intervals. Distortion product otoacoustic emissions (DPOAEs) were measured using an ER10C probe system. The two primary tone frequencies were set at 6 kHz (f1) and 7.4 kHz (f2), for a f2/f1-ratio of 1.23, with levels of 65 dB SPL (L1) and 55 dB SPL (L2). […]

Structure (SMILES): C[N+](C)(C)CCCCCNCC12CC3CC(CC(C3)C1)C2 [IEM-1460]
- effect on distortion product otoacoustic emissions (DPOAEs): unaffected
